How the values were obtained:
[1] = target: T1, Avi-KRAS WT (1-169) GppNHp/RAF1 RBD-3xFLAG (52-151) (Homo sapiens, UniProt P01116); assay: Raf1-KRAS WT-GppNHP disruption HTRF assay (Biological Example 1); assay type: binding; details: KRAS WT, GppNHp-loaded; Table 11
T1 construct: Avi-KRAS WT (1-169)
Summary of the method: (§1)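 Compounds were tested for disruption of KRAS–RAF1 RBD binding by HTRF in 50 mM Tris pH 7.5, 100 mM NaCl, 5 mM MgCl2, 0.1% BSA, 0.01% Tween, 10% DMSO. Protein mix was incubated 1 h at room temperature with shaking, then detection reagents added for another 1 h. Activity expressed as percent of DMSO control.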

SW620 cells (KRAS G12V) = assay: Cell-based pERK HTRF assay in SW620 cell (Biological Example 4); details: Homo sapiens, SW-620, SW620 (KRAS G12V) cells, pERK HTRF
Experimental: A pERK assay (Perkin Elmer) was used to determine the effectiveness of compounds in disrupting KRAS G12V protein/effector signaling in cells.
On Day 1, cells (SW620) were seeded into 96-well plates at 3×10^4 cells/well in 80 μL complete growth media (RPMI, 10% FBS).
On Day 2, cells were treated with compounds at 0.25% DMSO. The source plate was created with compounds diluted in media at 5-fold the final assay concentration. The compounds were run in a 9-point concentration curve starting at 1 μM, with a half-log dilution between concentrations. Twenty μL was transferred onto the cell plates (final volume in wells was 100 μL). Plates were harvested after 4 h incubation by aspirating media and adding kit-supplied 1x supplemented lysis buffer to all wells (50 μL per well). Plates were then placed on a plate shaker and incubated at 850 rpm for an additional 30 min.
Antibody mixture solution was prepared by diluting aliquoted d2 and Eu Cryptate antibodies 1:20 in kit supplied detection buffer and mixing the diluted antibodies solutions (1:1 v:v).
Samples were homogenized by pipetting up and down and then transferred (16 μL of cell lysates) from the 96-well cell culture plate to two wells of the HTRF 384-well detection plate containing the antibody solution. Plates were centrifuged (524 g for Imin) and allowed to incubate between 4 and 24 h at room temperature. […] Plates were centrifuged again (524 g for 1 min), then analyzed on the En Vision plate reader using the following settings: Excitation 320 nm, Bandwidth 75 nm; Emission 615 nm, Bandwidth 85 nm; Gain 100%; Flashes 100; Lag 60 μs.

[2] = target: T2, Avi-KRAS G12V (1-169) GppNHp/RAF1 RBD-3xFLAG (52-151) (Homo sapiens, UniProt P01116, G12V); assay: Raf1-KRAS G12V-GppNHP disruption HTRF assay (Biological Example 1); assay type: binding; details: KRAS G12V, GppNHp-loaded; Table 11
T2 construct: Avi-KRAS G12V (1-169)
Summary of the method: as §1

[3] = target: T3, Avi-KRAS G12R (1-169) GppNHp/RAF1 RBD-3xFLAG (52-151) (Homo sapiens, UniProt P01116, G12R); assay: Raf1-KRAS G12R-GppNHP disruption HTRF assay (Biological Example 1); assay type: binding; details: KRAS G12R, GppNHp-loaded; Table 11
T3 construct: Avi-KRAS G12R (1-169)
Summary of the method: as §1

[4] = target: T4, Avi-KRAS G12D (1-169) GppNHp/RAF1 RBD-3xFLAG (52-151) (Homo sapiens, UniProt P01116, G12D); assay: Raf1-KRAS G12D-GppNHP disruption HTRF assay (Biological Example 1); assay type: binding; details: KRAS G12D, GppNHp-loaded; Table 11
T4 construct: Avi-KRAS G12D (1-169)
Summary of the method: as §1

GP2d cells (KRAS G12D) = assay: Cell-based pERK HTRF assay in GP2d cell (Biological Example 2); details: GP2d (KRAS G12D) cells, pERK HTRF
Summary of the method: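 Phospho-ERK in lysed cells was detected by HTRF using Eu cryptate and d2 antibodies, read between 4 and 24 h at room temperature. Prior to lysis, KRAS G12D GP2d cells, seeded the day before in DMEM with 10% FBS, were exposed to compounds for 60 min. Compounds were tested as 9-point half-log curves from 1 μM or 100 nM top, with 0.25% DMSO.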

T2 sequence (P01116 1-169 isoform P01116-2 G12V): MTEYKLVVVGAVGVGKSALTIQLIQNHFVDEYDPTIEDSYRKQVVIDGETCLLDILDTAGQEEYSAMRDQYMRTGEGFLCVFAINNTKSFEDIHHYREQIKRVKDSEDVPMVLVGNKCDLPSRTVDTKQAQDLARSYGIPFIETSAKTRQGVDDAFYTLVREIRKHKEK
T3 sequence (P01116 1-169 isoform P01116-2 G12R): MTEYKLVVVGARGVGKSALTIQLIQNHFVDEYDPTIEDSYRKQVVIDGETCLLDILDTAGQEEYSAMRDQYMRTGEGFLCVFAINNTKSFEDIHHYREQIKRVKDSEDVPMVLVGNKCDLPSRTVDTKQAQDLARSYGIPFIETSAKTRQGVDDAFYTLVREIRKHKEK
T1 sequence (P01116 1-169 isoform P01116-2): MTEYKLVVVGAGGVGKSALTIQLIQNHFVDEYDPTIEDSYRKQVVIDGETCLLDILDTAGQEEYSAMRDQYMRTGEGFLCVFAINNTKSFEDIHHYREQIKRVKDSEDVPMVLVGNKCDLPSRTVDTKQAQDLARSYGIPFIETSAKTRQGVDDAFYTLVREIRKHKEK
T4 sequence (P01116 1-169 isoform P01116-2 G12D): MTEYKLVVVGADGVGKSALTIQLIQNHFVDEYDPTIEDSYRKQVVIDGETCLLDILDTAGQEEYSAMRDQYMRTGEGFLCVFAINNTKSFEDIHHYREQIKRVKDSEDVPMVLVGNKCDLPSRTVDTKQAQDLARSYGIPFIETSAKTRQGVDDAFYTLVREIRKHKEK

SMILES | IC50 [1] [nM] | IC50 (SW620 cells (KRAS G12V)) [nM] | IC50 [2] [nM] | IC50 [3] [nM] | IC50 [4] [nM] | IC50 (GP2d cells (KRAS G12D); GP2d) [nM] | IC50 (GP2d cells (KRAS G12D)) [nM]
CN(c1nc(OC[C@@]23CCCN2C[C@H](F)C3)nc2c(F)c(-c3ccc(F)c4sc(N)c(C#N)c34)c(C(F)(F)F)cc12)C1CC(F)C1 (stereo partly shown) [Compound 161] | 100 to 1000 | < 100 | 100 to 1000 | 100 to 1000 | 100 to 1000 |  | 
CN(CC(F)F)c1nc(OC[C@@]23CCCN2C[C@H](F)C3)nc2c(F)c(-c3ccc(F)c4sc(N)c(C#N)c34)c(C(F)(F)F)cc12 [Compound 164] | 100 to 1000 |  | 100 to 1000 | 100 to 1000 | 100 to 1000 | < 100 | 
CCN(CCC#N)c1nc(OC[C@@]23CCCN2C[C@H](F)C3)nc2c(F)c(-c3ccc(F)c4sc(N)c(C#N)c34)c(C(F)(F)F)cc12 [Compound 166] | 100 to 1000 |  | 100 to 1000 | 100 to 1000 | 100 to 1000 | < 100 | 
N#Cc1c(N)sc2c(F)ccc(-c3c(C(F)(F)F)cc4c(N5CC[C@@H]5CO)nc(OC[C@@]56CCCN5C[C@H](F)C6)nc4c3F)c12 [Compound 168] | < 100 |  | 100 to 1000 | 100 to 1000 | < 100 | < 100 | 
N#Cc1c(N)sc2c(F)ccc(-c3c(C(F)(F)F)cc4c(N5CC[C@H]5CO)nc(OC[C@@]56CCCN5C[C@H](F)C6)nc4c3F)c12 [Compound 169] | 100 to 1000 |  | 100 to 1000 | 100 to 1000 | 100 to 1000 | < 100 | 
CN(c1nc(OC[C@@]23CCCN2C[C@H](F)C3)nc2c(F)c(-c3ccc(F)c4sc(N)c(C#N)c34)c(C(F)(F)F)cc12)C1(CO)CC1 [Compound 170] | 100 to 1000 |  | 100 to 1000 | 100 to 1000 | 100 to 1000 | < 100 | 
N#Cc1c(N)sc2c(F)ccc(-c3c(C(F)(F)F)cc4c(N(CCO)C5CC5)nc(OC[C@@]56CCCN5C[C@H](F)C6)nc4c3F)c12 [Compound 171] | 100 to 1000 |  | 100 to 1000 | 100 to 1000 | 100 to 1000 | < 100 | 
N#Cc1c(N)sc2c(F)ccc(-c3c(C(F)(F)F)cc4c(N(CCO)CCO)nc(OC[C@@]56CCCN5C[C@H](F)C6)nc4c3F)c12 [Compound 174] | < 100 |  | 100 to 1000 | < 100 | < 100 | < 100 | 
CCN(CCCO)c1nc(OC[C@@]23CCCN2C[C@H](F)C3)nc2c(F)c(-c3ccc(F)c4sc(N)c(C#N)c34)c(C(F)(F)F)cc12 [Compound 175] | 100 to 1000 |  | 100 to 1000 | 100 to 1000 | 100 to 1000 | < 100 | 
CCN(CCO)c1nc(OCC23CCCN2CCC3)nc2c(F)c(-c3ccc(F)c4sc(N)c(C#N)c34)c(C(F)(F)F)cc12 [Compound 176] | 100 to 1000 |  | 100 to 1000 | 100 to 1000 | < 100 | < 100 | 
CCN(CCO)c1nc(OC[C@@H]2C[C@@H](F)CN2C)nc2c(F)c(-c3ccc(F)c4sc(N)c(C#N)c34)c(C(F)(F)F)cc12 [Compound 177] | 100 to 1000 |  | 100 to 1000 | 100 to 1000 | 100 to 1000 | < 100 | 
CCN(CCO)c1nc(OC[C@@H]2C[C@@H](OC)CN2C)nc2c(F)c(-c3ccc(F)c4sc(N)c(C#N)c34)c(C(F)(F)F)cc12 [Compound 178] | 1000 to 10000 |  | 1000 to 10000 | 100 to 1000 | 100 to 1000 |  | < 100
CCN(CCO)c1nc(OC[C@@H]2CCCN2C)nc2c(F)c(-c3ccc(F)c4sc(N)c(C#N)c34)c(C(F)(F)F)cc12 [Compound 179] | 100 to 1000 |  | 100 to 1000 | 100 to 1000 | 100 to 1000 | < 100 | 
CCN(CCO)c1nc(OC[C@@H]2CC3(CC3)CN2C)nc2c(F)c(-c3ccc(F)c4sc(N)c(C#N)c34)c(C(F)(F)F)cc12 [Compound 180] | 100 to 1000 |  | 100 to 1000 | 100 to 1000 | 100 to 1000 | < 100 | 
CN(c1nc(OC[C@@]23CCCN2C[C@H](F)C3)nc2c(F)c(-c3ccc(F)c4sc(N)c(C#N)c34)c(C(F)(F)F)cc12)[C@@H]1C[C@H](O)[C@H]1CO [Compound 181] | < 100 |  | 100 to 1000 | 100 to 1000 | < 100 | < 100 | 
CN(c1nc(OC[C@@]23CCCN2C[C@H](F)C3)nc2c(F)c(-c3ccc(F)c4sc(N)c(C#N)c34)c(C(F)(F)F)cc12)[C@@H]1C[C@H](O)[C@H]1CC#N [Compound 182] | 100 to 1000 |  | 100 to 1000 | 100 to 1000 | 100 to 1000 | < 100 | 
CC(=O)N1CCN(c2nc(OC[C@@]34CCCN3C[C@H](F)C4)nc3c(F)c(-c4ccc(F)c5sc(N)c(C#N)c45)c(C(F)(F)F)cc23)C[C@@H]1CC#N [Compound 183] | 1000 to 10000 |  | 1000 to 10000 | 1000 to 10000 | 1000 to 10000 | 100 to 1000 | 
CC(=O)N1CCN(c2nc(OC[C@@]34CCCN3C[C@H](F)C4)nc3c(F)c(-c4ccc(F)c5sc(N)c(C#N)c45)c(C(F)(F)F)cc23)C[C@H]1CC#N [Compound 184] | > 10000 |  | > 10000 | > 10000 | 1000 to 10000 | 100 to 1000 | 
CCN(c1nc(OC[C@@]23CCCN2C[C@H](F)C3)nc2c(F)c(-c3ccc(F)c4sc(N)c(C#N)c34)c(C(F)(F)F)cc12)[C@@H]1CCN(C(C)=O)[C@@H]1C [Compound 189] | 100 to 1000 |  | 100 to 1000 | 100 to 1000 | 100 to 1000 | < 100 | 
CC(=O)N1CC[C@H](N(C)c2nc(OC[C@@]34CCCN3C[C@H](F)C4)nc3c(F)c(-c4ccc(F)c5sc(N)c(C#N)c45)c(C(F)(F)F)cc23)[C@H]1C [Compound 191] | 100 to 1000 |  | 100 to 1000 | 100 to 1000 | 100 to 1000 | < 100 | 

Reference: US20260042764A1, “COMPOSITIONS AND METHODS FOR INHIBITION OF KRAS” (TheRas, Inc., priority 2022, published 2026)
